Test results from patent publication US10208019B2, “GLP-1 receptor agonists and uses thereof” (Pfizer Inc., priority 2016, dated 2019).

Target: human GLP-1R (Homo sapiens, UniProt P43220, G168S)
Experiment: CHO GLP-1R Clone H6—Assay 1: HTRF cAMP cell-based functional agonist assay (high GLP-1R density)
Conditions: for EC50: read-out: Assay 1 EC50, CHO GLP-1R Clone H6, cAMP HTRF, geometric mean; for Emax: read-out: Assay 1 Emax (%), CHO GLP-1R Clone H6, relative to saturating concentration of full agonist GLP-1 (1 μM), arithmetic mean

Chain of human GLP-1R (P43220 24-463 G168S limits assumed): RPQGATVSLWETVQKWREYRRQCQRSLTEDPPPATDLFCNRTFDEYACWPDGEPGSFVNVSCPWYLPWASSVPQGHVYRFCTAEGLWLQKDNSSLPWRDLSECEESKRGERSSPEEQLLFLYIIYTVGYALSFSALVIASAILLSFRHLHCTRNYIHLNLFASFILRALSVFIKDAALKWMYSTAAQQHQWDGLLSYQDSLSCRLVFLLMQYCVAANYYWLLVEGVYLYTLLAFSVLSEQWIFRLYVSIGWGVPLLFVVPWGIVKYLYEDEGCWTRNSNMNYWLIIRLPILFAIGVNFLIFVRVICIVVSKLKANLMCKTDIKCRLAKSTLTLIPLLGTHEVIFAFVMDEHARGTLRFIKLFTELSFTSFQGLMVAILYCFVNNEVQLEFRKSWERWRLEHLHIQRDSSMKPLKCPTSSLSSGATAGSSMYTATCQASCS

Row | SMILES | EC50 [nM] | Emax [%]
1 | Cn1cc(CCn2c(CN3CCC(c4cccc(OCc5ccc(Cl)cc5F)n4)CC3)nc3ccc(C(=O)O)cc32)cn1 [Example 11A-32, 2-[(4-{6-[(4-chloro-2-fluorobenzyl)oxy]pyridin-2-yl}piperidin-1-yl)methyl]-1-[2-(1-methyl-1H-pyrazol-4-yl)ethyl]-1H-benzimidazole-6-carboxylic acid] | 87 | 83
2 | Cn1cc(Cn2c(CN3CCC(c4cccc(OCc5ccc(Cl)cc5F)n4)CC3)nc3ccc(C(=O)O)cc32)nn1 [Example 11A-36, 2-[(4-{6-[(4-chloro-2-fluorobenzyl)oxy]pyridin-2-yl}piperidin-1-yl)methyl]-1-[(1-methyl-1H-1,2,3-triazol-4-yl)methyl]-1H-benzimidazole-6-carboxylic acid] | 110 | 79
3 | CCn1ccnc1Cn1c(CN2CCC(c3cccc(OCc4ccc(Cl)cc4F)n3)CC2)nc2ccc(C(=O)O)cc21 [Example 11A-39, 2-[(4-{6-[(4-chloro-2-fluorobenzyl)oxy]pyridin-2-yl}piperidin-1-yl)methyl]-1-[(1-ethyl-1H-imidazol-2-yl)methyl]-1H-benzimidazole-6-carboxylic acid] | 130 | 80
4 | O=C(O)c1ccc2nc(CN3CCC(c4cccc(OCc5ccc(Cl)cc5F)n4)CC3)n(CCc3c[nH]cn3)c2c1 [Example 11A-41, 2-[(4-{6-[(4-chloro-2-fluorobenzyl)oxy]pyridin-2-yl}piperidin-1-yl)methyl]-1-[2-(1H-imidazol-4-yl)ethyl]-1H-benzimidazole-6-carboxylic acid] | 190 | 74
5 | CN1CC(Cn2c(CN3CCC(c4cccc(OCc5ccc(Cl)cc5F)n4)CC3)nc3ccc(C(=O)O)cc32)CC1=O (stereo not drawn) [Example 11A-42, 2-[(4-{6-[(4-chloro-2-fluorobenzyl)oxy]pyridin-2-yl}piperidin-1-yl]methyl]-1-[(1-methyl-5-oxopyrrolidin-3-yl)methyl]-1H-benzimidazole-6-carboxyl ic acid] | 190 | –
6 | Cn1cc(CCn2c(CN3CCC(c4cccc(OCc5ccc(Cl)cc5F)n4)CC3)nc3ccc(C(=O)O)cc32)nn1 [Example 11A-44, 2-[(4-{6-[(4-chloro-2-fluorobenzyl)oxy]pyridin-2-yl}piperidin-1-yl)methyl]-1-[2-(1-methyl-1H-1,2,3-triazol-4-yl)ethyl]-1H-benzimidazole-6-carboxylic acid] | 210 | 77
7 | COC[C@H](C)n1c(CN2CCC(c3cccc(OCc4ccc(Cl)cc4F)n3)CC2)nc2ccc(C(=O)O)cc21 [Example 11A-45, 2-[(4-{6-[(4-chloro-2-fluorobenzyl)oxy]pyridin-2-yl}piperidin-1-yl)methyl]-1-[(2S)-1-methoxypropan-2-yl]-1H-benzimidazole-6-carboxylic acid] | 290 | 74
8 | COC[C@@H](C)n1c(CN2CCC(c3cccc(OCc4ccc(Cl)cc4F)n3)CC2)nc2ccc(C(=O)O)cc21 [Example 11A-46, 2-[(4-{6-[(4-chloro-2-fluorobenzyl)oxy]pyridin-2-yl}piperidin-1-yl]methyl]-1-[(2R)-1-methoxypropan-2-yl]-1H-benzimidazole-6-carboxylic acid] | 300 | 66
9 | CC(c1nncn1C)n1c(CN2CCC(c3cccc(OCc4ccc(Cl)cc4F)n3)CC2)nc2ccc(C(=O)O)cc21 (stereo not drawn) [Example 11A-52, 2-[(4-{6-[(4-chloro-2-fluorobenzyl)oxy]pyridin-2-yl}piperidin-1-yl)methyl]-1-[1-(4-methyl-4H-1,2,4-triazol-3-yl)ethyl]-1H-benzimidazole-6-carboxylic acid] | 440 | 86
10 | Cn1cnnc1CCn1c(CN2CCC(c3cccc(OCc4ccc(Cl)cc4F)n3)CC2)nc2ccc(C(=O)O)cc21 [Example 11A-53, 2-[(4-{6-[(4-chloro-2-fluorobenzyl)oxy]pyridin-2-yl}piperidin-1-yl)methyl]-1-[2-(4-methyl-4H-1,2,4-triazol-3-yl)ethyl]-1H-benzimidazole-6-carboxylic acid] | 450 | 71
11 | Cc1nc(Cn2c(CN3CCC(c4cccc(OCc5ccc(Cl)cc5F)n4)CC3)nc3ccc(C(=O)O)cc32)c(C)o1 [Example 11A-55, 2-[(4-{6-[(4-chloro-2-fluorobenzyl)oxy]pyridin-2-yl}piperidin-1-yl)methyl]-1-[(2,5-dimethyl-1,3-oxazol-4-yl)methyl]-1H-benzimidazole-6-carboxylic acid] | 520 | 80
12 | Cc1cc(C)n(CCn2c(CN3CCC(c4cccc(OCc5ccc(Cl)cc5F)n4)CC3)nc3ccc(C(=O)O)cc32)n1 [Example 11A-57, 2-[(4-{6-[(4-chloro-2-fluorobenzyl)oxy]pyridin-2-yl}piperidin-1-yl)methyl]-1-[2-(3,5-dimethyl-1H-pyrazol-1-yl)ethyl]-1H-benzimidazole-6-carboxylic acid] | 1100 | 65
13 | Cc1cc(Cn2c(CN3CCC(c4cccc(OCc5ccc(Cl)cc5F)n4)CC3)nc3ccc(C(=O)O)cc32)[nH]n1 [Example 11A-58, 2-[(4-{6-[(4-chloro-2-fluorobenzyl)oxy]pyridin-2-yl}piperidin-1-yl)methyl]-1-[(3-methyl-1H-pyrazol-5-yl)methyl]-1H-benzimidazole-6-carboxylic acid] | 1100 | 81
14 | Cc1n[nH]c(Cn2c(CN3CCC(c4cccc(OCc5ccc(Cl)cc5F)n4)CC3)nc3ccc(C(=O)O)cc32)n1 [Example 11A-59, 2-[(4-{6-[(4-chloro-2-fluorobenzyl)oxy]pyridin-2-yl}piperidin-1-yl)methyl]-1-[(3-methyl-1H-1,2,4-triazol-5-yl)methyl]-1H-benzimidazole-6-carboxylic acid] | 1400 | 97

The next lines start with the values.

Row | EC50 [nM] | Emax [%] | SMILES
15 | > 20000 | – | COCCN1CCCC(Cn2c(CN3CCC(c4cccc(OCc5ccc(Cl)cc5F)n4)CC3)nc3ccc(C(=O)O)cc32)C1 (stereo not drawn) [Example 11A-13, 2-[(4-{6-[(4-chloro-2-fluorobenzyl)oxy]pyridin-2-yl}piperidin-1-yl)methyl]-1-{[1-(2-methoxyethyl)piperidin-3-yl]methyl}-1H-benzimidazole-6-carboxylic acid]
16 | 110 | 74 | Cc1cc(Cn2c(CN3CCC(c4cccc(OCc5ccc(Cl)cc5F)n4)CC3)nc3ccc(C(=O)O)cc32)no1 [Example 11A-35, 2-[(4-{6-[(4-chloro-2-fluorobenzyl)oxy]pyridin-2-yl}piperidin-1-yl)methyl]-1-[(5-methyl-1,2-oxazol-3-yl)methyl]-1H-benzimidazole-6-carboxylic acid]
17 | 120 | 80 | COCCCn1c(CN2CCC(c3cccc(OCc4ccc(Cl)cc4F)n3)CC2)nc2ccc(C(=O)O)cc21 [Example 11A-38, 2-[(4-{6-[(4-chloro-2-fluorobenzyl)oxy]pyridin-2-yl}piperidin-1-yl)methyl]-1-(3-methoxypropyl)-1H-benzimidazole-6-carboxylic acid]
18 | 170 | 77 | O=C(O)c1ccc2nc(CN3CCC(c4cccc(OCc5ccc(Cl)cc5F)n4)CC3)n(CC3CCCOC3)c2c1 (stereo not drawn) [Example 11A-40, 2-[(4-{6-[(4-chloro-2-fluorobenzyl)oxy]pyridin-2-yl}piperidin-1-yl)methyl]-1-(tetrahydro-2H-pyran-3-ylmethyl)-1H-benzimidazole-6-carboxylic acid]
19 | 190 | 80 | Cn1cc(Cn2c(CN3CCC(c4cccc(OCc5ccc(Cl)cc5F)n4)CC3)nc3ccc(C(=O)O)cc32)cn1 [Example 11A-43, 2-[(4-{6-[(4-chloro-2-fluorobenzyl)oxy]pyridin-2-yl}piperidin-1-yl)methyl]-1-[(1-methyl-1H-pyrazol-4-yl)methyl]-1H-benzimidazole-6-carboxylic acid]
20 | 320 | 79 | Cc1cc(Cn2c(CN3CCC(c4cccc(OCc5ccc(Cl)cc5F)n4)CC3)nc3ccc(C(=O)O)cc32)on1 [Example 11A-47, 2-[(4-{6-[(4-chloro-2-fluorobenzyl)oxy]pyridin-2-yl}piperidin-1-yl]methyl]-1-[(3-methyl-1,2-oxazol-5-yl)methyl]-1H-benzimidazole-6-carboxylic acid]
21 | 380 | 68 | O=C(O)c1ccc2nc(CN3CCC(c4cccc(OCc5ccc(Cl)cc5F)n4)CC3)n(CC3CCOCC3)c2c1 [Example 11A-49, 2-[(4-{6-[(4-chloro-2-fluorobenzyl)oxy]pyridin-2-yl}piperidin-1-yl)methyl]-1-(tetrahydro-2H-pyran-4-ylmethyl)-1H-benzimidazole-6-carboxylic acid]
22 | 380 | 75 | O=C(O)c1ccc2nc(CN3CCC(c4cccc(OCc5ccc(Cl)cc5F)n4)CC3)n(CCN3CCOCC3)c2c1 [Example 11A-50, 2-[(4-{6-[(4-chloro-2-fluorobenzyl)oxy]pyridin-2-yl}piperidin-1-yl)methyl]-1-[2-(morpholin-4-yl)ethyl]-1H-benzimidazole-6-carboxylic acid]
23 | 390 | 69 | O=C(O)c1ccc2nc(CN3CCC(c4cccc(OCc5ccc(Cl)cc5F)n4)CC3)n(CC3CC(F)(F)C3)c2c1 [Example 11A-51, 2-[(4-{6-[(4-chloro-2-fluorobenzyl)oxy]pyridin-2-yl}piperidin-1-yl)methyl]-1-[(3,3-difluorocyclobutyl)methyl]-1H-benzimidazole-6-carboxylic acid]
24 | 500 | 69 | CCN1CCC[C@@H]1Cn1c(CN2CCC(c3cccc(OCc4ccc(Cl)cc4F)n3)CC2)nc2ccc(C(=O)O)cc21 [Example 11A-54, 2-[(4-{6-[(4-chloro-2-fluorobenzyl)oxy]pyridin-2-yl}piperidin-1-yl)methyl]-1-{[(2R)-1-ethylpyrrolidin-2-yl]methyl}-1H-benzimidazole-6-carboxylic acid]
25 | 1100 | 47 | COC1CCN(CCn2c(CN3CCC(c4cccc(OCc5ccc(Cl)cc5F)n4)CC3)nc3ccc(C(=O)O)cc32)CC1 [Example 11A-56, 2-[(4-{6-[(4-chloro-2-fluorobenzyl)oxy]pyridin-2-yl}piperidin-1-yl)methyl]-1-[2-(4-methoxypiperidin-1-yl)ethyl]-1H-benzimidazole-6-carboxylic acid]
